# Assays:
# [1] = tested on: Mycobacterium tuberculosis; experiment: Antimicrobial activity against Mycobacterium tuberculosis H37Rv ATCC 27294 assessed as growth inhibition after 5 days by microdilution method; format: functional; settings: H37Rv ATCC 27294, 120 h
# [2] = tested on: Mycobacterium tuberculosis; experiment: Antimicrobial activity against clinical isolate Mycobacterium tuberculosis H37Rv ATCC 27294 assessed as growth inhibition after 7 days by turbidometry; format: functional; settings: H37Rv ATCC 27294, 168 h
# [3] = tested on: Mycobacterium tuberculosis; experiment: Antimicrobial activity against clinical isolate Mycobacterium tuberculosis Erdman assessed as growth inhibition after 7 days by turbidometry; format: functional; settings: 168 h
# [4] = tested on: Mycobacterium tuberculosis; experiment: Antimicrobial activity against clinical isolate Mycobacterium tuberculosis DKU220 assessed as growth inhibition after 7 days by turbidometry; format: functional; settings: DKU220, 168 h
# [5] = molecular target: T1, Enoyl-[acyl-carrier-protein] reductase [NADH] (Mycobacterium tuberculosis, UniProt P9WGR1); experiment: Inhibition of Mycobacterium tuberculosis InhA using NADH and dodecyl coA substrate by LC-MS/MS method
# T1 sequence (P9WGR1 whole entry): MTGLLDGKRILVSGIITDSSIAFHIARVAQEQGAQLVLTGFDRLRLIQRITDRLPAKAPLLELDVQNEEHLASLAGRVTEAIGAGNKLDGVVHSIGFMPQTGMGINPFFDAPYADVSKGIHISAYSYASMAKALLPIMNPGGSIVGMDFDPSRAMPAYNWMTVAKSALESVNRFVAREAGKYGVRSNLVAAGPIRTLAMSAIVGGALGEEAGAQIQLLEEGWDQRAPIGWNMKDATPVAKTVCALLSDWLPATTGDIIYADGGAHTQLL
# [6] = tested on: Mycobacterium tuberculosis; experiment: Antimicrobial activity against clinical isolate Mycobacterium tuberculosis Harlingen assessed as growth inhibition after 7 days by turbidometry; format: functional; settings: 168 h
# [7] = tested on: Mycobacterium tuberculosis; experiment: Antimicrobial activity against clinical isolate Mycobacterium tuberculosis JAL assessed as growth inhibition after 7 days by turbidometry; format: functional; settings: 168 h
# [8] = tested on: Mycobacterium tuberculosis; experiment: Antimicrobial activity against clinical isolate Mycobacterium tuberculosis DKU211 assessed as growth inhibition after 7 days by turbidometry; format: functional; settings: DKU211, 168 h
# [9] = tested on: Mycobacterium tuberculosis; experiment: Antimicrobial activity against clinical isolate Mycobacterium tuberculosis DKU97A assessed as growth inhibition after 7 days by turbidometry; format: functional; settings: 168 h
# [10] = tested on: Mycobacterium tuberculosis; experiment: Antimicrobial activity against clinical isolate Mycobacterium tuberculosis Beijing assessed as growth inhibition after 7 days by turbidometry; format: functional; settings: 168 h
# [11] = tested on: Mycobacterium tuberculosis; experiment: Antimicrobial activity against clinical isolate Mycobacterium tuberculosis ATCC35811 assessed as growth inhibition after 7 days by turbidometry; format: functional; settings: ATCC35811, 168 h
# [12] = tested on: Mycobacterium tuberculosis; experiment: Antimicrobial activity against clinical isolate Mycobacterium tuberculosis ATCC25618 assessed as growth inhibition after 7 days by turbidometry; format: functional; settings: ATCC25618, 168 h
# [13] = tested on: Mycobacterium tuberculosis; experiment: Antimicrobial activity against clinical isolate Mycobacterium tuberculosis DKU76 assessed as growth inhibition after 7 days by turbidometry; format: functional; settings: DKU76, 168 h
# [14] = Solubility of the compound; format: physicochemical
# [15] = Intrinsic clearance in human liver microsomes; format: ADME; settings: read-out: CLH
# [16] = Unbound fraction in mouse plasma; format: ADME, cell-free
# [17] = Intrinsic clearance in mouse liver microsomes; format: ADME; settings: read-out: CLH
# [18] = tested on: Mycobacterium tuberculosis; experiment: Bactericidal activity against Mycobacterium tuberculosis H37Rv ATCC 27294 after 5 days by microdilution method; format: functional; settings: H37Rv ATCC 27294, 120 h
smiles,measurement,setting,value
CCCc1cc(-c2nc(-c3ccc(OC)cc3)cs2)ccn1,MIC80,[1],1 mg/L
CCCc1cc(-c2nc(-c3ccc(Cl)cc3)c(C)s2)ccn1,MIC80,[1],4 mg/L
CCCc1cc(-c2ncc(-c3ccnc(OC)c3)s2)ccn1,MIC80,[1],32 mg/L
CO[C@H]1/C=C/O[C@@]2(C)Oc3c(C)c(O)c4c(O)c(c(/C=N/N5CCN(C)CC5)c(O)c4c3C2=O)NC(=O)/C(C)=C\C=C\[C@H](C)[C@H](O)[C@@H](C)[C@@H](O)[C@@H](C)[C@H](OC(C)=O)[C@@H]1C [RIFAMPIN],MIC80,[2],0.007 mg/L
same,MIC80,[3],0.003 mg/L
same,MIC80,[4],0.003 mg/L
same,IC50,[5],0.03 µM
same,MIC80,[6],0.003 mg/L
same,MIC80,[7],0.003 mg/L
same,MIC80,[8],0.003 mg/L
same,MIC80,[9],0.003 mg/L
same,MIC80,[10],0.003 mg/L
same,MIC80,[11],0.003 mg/L
same,MIC80,[12],0.003 mg/L
same,MIC80,[13],0.003 mg/L
CCCc1cc(-c2nc(-c3ccccc3F)cs2)ccn1,MIC80,[1],2 mg/L
CC(=O)N1CCC(c2nc(-c3ccc(Cl)cc3)cs2)CC1,MIC80,[1],> 32 mg/L
CCCc1cc(-c2nc(-c3ccc(C)cc3)cs2)ccn1 [FATOSTATIN],MIC80,[1],1 mg/L
same,solubility,[14],0.4 µM
CCCc1cc(-c2nc(-c3cccc(OC)c3)cs2)ccn1,MIC80,[2],0.25 mg/L
same,MIC80,[1],0.5 mg/L
same,MIC80,[3],0.25 mg/L
same,MIC80,[4],1 mg/L
same,MIC80,[6],0.13 mg/L
same,MIC80,[7],0.5 mg/L
same,MIC80,[8],1 mg/L
same,MIC80,[9],0.5 mg/L
same,MIC80,[10],0.13 mg/L
same,MIC80,[11],0.5 mg/L
same,MIC80,[12],0.25 mg/L
same,MIC80,[13],1 mg/L
CCCc1cc(-c2nsc(-c3ccnc(CCC)c3)n2)ccn1,MIC80,[1],32 mg/L
NNC(=O)c1ccncc1 [ISONIAZID],MIC80,[2],0.06 mg/L
same,MIC80,[3],0.06 mg/L
same,MIC80,[4],0.06 mg/L
same,MIC80,[6],0.06 mg/L
same,MIC80,[7],0.06 mg/L
same,MIC80,[8],0.06 mg/L
same,MIC80,[9],0.06 mg/L
same,MIC80,[10],0.06 mg/L
same,MIC80,[11],0.06 mg/L
same,MIC80,[12],0.06 mg/L
same,MIC80,[13],0.06 mg/L
CCCc1cc(-c2nc(-c3ccc(Cl)cc3)c(C(N)=O)s2)ccn1,MIC80,[1],> 32 mg/L
CCCc1cc(-c2nc(-c3ccccc3C(F)(F)F)cs2)ccn1,MIC80,[1],> 32 mg/L
CCCc1cc(-c2nc(-c3ccc(C(F)(F)F)cc3)cs2)ccn1,MIC80,[1],1 mg/L
CCCc1cc(-c2nc(-c3ccc(NS(C)(=O)=O)cc3)cs2)ccn1,MIC80,[2],0.25 mg/L
same,MIC80,[1],0.4 mg/L
same,MIC80,[3],0.13 mg/L
same,MIC80,[4],0.5 mg/L
same,solubility,[14],1.3 µM
same,MIC80,[6],0.13 mg/L
same,MIC80,[7],0.25 mg/L
same,MIC80,[8],0.5 mg/L
same,MIC80,[9],0.5 mg/L
same,microsomal CLint,[15],4.3 µL/min/mg
same,MIC80,[10],0.13 mg/L
same,MIC80,[11],0.5 mg/L
same,fraction unbound,[16],< 0.01
same,MIC80,[12],0.13 mg/L
same,microsomal CLint,[17],28.8 µL/min/mg
same,MIC80,[13],1 mg/L
CCCc1cc(-c2nc(-c3ccc(NC(=O)NCC)cc3)cs2)ccn1,MIC80,[1],1 mg/L
CCCc1cc(-c2nc(-c3cncnc3)cs2)ccn1,MIC80,[1],4 mg/L
CCCc1cc(-c2nc(-c3ccc(OCCN(C)C)cc3)cs2)ccn1,MIC80,[1],16 mg/L
same,solubility,[14],279 µM
CCCc1cc(-c2nc(-c3ccc(OCC4CC4)cc3)cs2)ccn1,MIC80,[2],0.5 mg/L
same,MIC80,[1],0.25 mg/L
same,MIC80,[3],0.5 mg/L
same,MIC80,[4],0.5 mg/L
same,MIC80,[6],0.25 mg/L
same,MIC80,[7],0.5 mg/L
same,MIC80,[8],0.5 mg/L
same,MIC80,[9],0.5 mg/L
same,MIC80,[10],0.25 mg/L
same,MIC80,[11],1 mg/L
same,MIC80,[12],0.5 mg/L
same,MIC80,[13],1 mg/L
CCCc1cc(-c2nc(-c3ccc(C(=O)O)cc3)cs2)ccn1,MIC80,[1],16 mg/L
CCCc1cc(-c2nc(-c3ccc(OCCOC)cc3)cs2)ccn1,MIC80,[1],1 mg/L
CCCc1cc(-c2nc(-c3ccccn3)cs2)ccn1,MIC80,[1],4 mg/L
CN1CCC(c2nc(-c3ccc(Cl)cc3)cs2)CC1,MIC80,[1],> 32 mg/L
CCCc1cc(-c2ncc(-c3ccncc3)s2)ccn1,MIC80,[1],32 mg/L
CCCc1cc(-c2nc(-c3ccc(Cl)cc3)cs2)ccn1,MIC80,[1],1 mg/L
same,MBC,[18],2 mg/L

# Source: ChEMBL document CHEMBL3351699, “Diarylthiazole: an antimycobacterial scaffold potentially targeting PrrB-PrrA two-component system” (J Med Chem, 2014)
